Assay results reported in patent US7179926B2, “Aryloxyalkylamine NK-1/SSRI inhibitors” (Bristol-Myers Squibb Company, priority 2004, dated 2007).
pIC50: −log10 of the molar value.

Experiments:
[1] = molecular target: T1, neurokinin-1 (NK-1) receptor (Homo sapiens, UniProt P25103); assay: NK-1 Binding assay ([125I] Substance P competition, U373 cell membranes); conditions: Bolton Hunter labeled [125I] Substance P, 30 min at 20° C.
T1 construct: endogenously expresses the neurokinin-1 (NK-1) receptor; endogenous in cells; host or cells: U373 human glioblastoma-astrocytoma cells (membranes)
Description: NK-1 Binding assay. U373 cells, a human glioblastoma-astrocytoma cell line that endogenously expresses the neurokinin-1 (NK-1) receptor, were grown in a monolayer culture at 37° C. in 5% CO2 and fed with Minimum Essential Medium (MEM) supplemented with 10% fetal bovine serum. Membranes were prepared as follows: Cells were washed twice with ice-cold phosphate-buffered saline (pH 7.4) and then incubated for 5–10 minutes with ice-cold 10 mM Tris buffer (pH 7.4) containing 5 mM EDTA. Cells were removed from plates, homogenized, and centrifuged at 32,000×g for 20 minutes. The resulting supernatant was discarded, and the pellet resuspended by homogenization in 50 mM Tris buffer (pH 7.4) containing 1 mM EDTA and centrifuged at 32,000×g for 20 minutes. The resulting supernatant was discarded, and the pellet resuspended by homogenization in NK-1 binding assay buffer (50 mM Tris-HCL (pH 7.4), 3 mM MnCl2, 200 μg/ml BSA, 5 μg/ml chymostatin, 40 μg/ml bacitracin and 4 μg/ml leupeptin).
On the day of an experiment the membrane preparation was thawed, homogenized and diluted with NK-1 binding assay buffer to the appropriate concentration. Competition binding assays were performed in 96 well plate format by incubating membranes (5–10 μg/well) with Bolton Hunter labeled [^125I] Substance P, at a concentration of […], and concentrations of drugs ranging from 10000 to 0.01 nM. Samples were incubated for 30 min at 20° C. then filtered through GF/B glass fiber filters (pretreated with 1% polyethyleneimine and 0.3% Triton X-100) using a Brandel cell harvester. The filters were then washed with 10 ml ice cold 50 mM Tris-HCL (pH 7.4) containing 3 mM MgCl2. Non-specific was defined in the presence of 2 μM L-733,060 (a non-peptide NK-1 antagonist). The amount of radioligand bound in the presence and absence of competitor was analyzed by plotting (−)log drug concentration versus the amount of radioligand specifically bound. The midpoint of the displacement curve (IC50, nM), signifies the potency. Ki values can be calculated using the method of Cheng and Prusoff (Cheng and Prusoff, Biochemical Pharmacology, Vol 22, pp. 3099–3108, Pergamon Press (1973)).

[2] = molecular target: T2, human serotonin transporters (Homo sapiens, UniProt P31645); assay: Serotonin transporter binding assay ([3H]-citalopram competition, HEK-hSERT cell membranes); conditions: 1 nM [3H]-citalopram, 1 hr at 25° C., read-out: SERT IC50
T2 construct: expressed in transfected cells
Description: Serotonin transporter binding assay. HEK-293 cells that stably express human serotonin transporters (HEK-hSERT cells) were grown at 37° C. in 5% CO2 as a monolayer in medium consisting of EMEM supplemented with 10% fetal bovine serum and G418 sulfate (500 μg/ml). To prepare membranes for radioligand binding experiments, cells were rinsed twice with phosphate-buffered saline (138 mM NaCl, 4.1 mM KCl, 5.1 mM Na2PO4, 1.5 mM KH2PO4, 11.1 mM glucose, pH 7.4). Cells were transferred from plates to polypropylene tubes (16×100 mm), centrifuged at 1,200×g for 5 min and were frozen at −80° C. until assay. Following centrifugation, pellets were resuspended by homogenization in buffer consisting of 50 mM Tris (pH 7.7 at 25° C.), 120 mM NaCl and 5 mM KCl and then centrifuged at 32,000×g for 10 min. Following centrifugation, supernatants were discarded and pellets were resuspended in buffer consisting of 50 mM Tris (pH 7.4 at 25° C.), 150 mM NaCl and 5 mM KCl. Membrane homogenates (200 μl/plate) were incubated with 1 nM [^3H]-citalopram (specific activity=85 Ci/mmol) and increasing concentrations of test compounds for 1 hr at 25° C. in a total volume of 250 μl. The assay buffer consisted of 50 mM Tris (pH 7.4 at 25° C.), 120 mM NaCl and 5 mM KCl (pH 7.4 with conc. HCl). Plates were incubated for 1 hr at 25° C., then filtered through 0.5% PEI treated Whatman GF/B filters using a Brandel cell harvester. Filters were washed three times with 3 ml of ice-cold tris wash buffer. Non-specific binding was defined with 10 μM fluoxetine. Amount of radioligand bound in the presence and absence of competitor was analyzed by plotting (−)log drug concentration versus the amount of radioligand specifically bound. The midpoint of the displacement curve (IC50, nM), signifies the potency. Ki values can be calculated using the method of Cheng and Prusoff (Cheng and Prusoff, Biochemical Pharmacology, Vol 22, pp. 3099–3108, Pergamon Press (1973)).

T2 sequence (P31645 whole entry): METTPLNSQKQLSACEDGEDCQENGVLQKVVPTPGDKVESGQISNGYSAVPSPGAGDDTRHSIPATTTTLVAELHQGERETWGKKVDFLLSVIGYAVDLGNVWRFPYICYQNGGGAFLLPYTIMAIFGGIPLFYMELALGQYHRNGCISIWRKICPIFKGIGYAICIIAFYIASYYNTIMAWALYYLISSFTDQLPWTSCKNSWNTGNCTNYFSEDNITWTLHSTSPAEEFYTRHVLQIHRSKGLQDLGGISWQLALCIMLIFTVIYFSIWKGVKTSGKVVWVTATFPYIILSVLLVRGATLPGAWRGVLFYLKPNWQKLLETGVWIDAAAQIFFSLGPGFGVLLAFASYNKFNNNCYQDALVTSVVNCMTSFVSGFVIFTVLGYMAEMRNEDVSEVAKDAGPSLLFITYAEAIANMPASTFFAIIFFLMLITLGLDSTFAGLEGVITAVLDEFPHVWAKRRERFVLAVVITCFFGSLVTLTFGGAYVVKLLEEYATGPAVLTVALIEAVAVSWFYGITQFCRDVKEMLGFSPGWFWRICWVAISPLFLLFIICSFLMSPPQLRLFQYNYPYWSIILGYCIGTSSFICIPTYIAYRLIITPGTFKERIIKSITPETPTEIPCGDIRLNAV
T1 sequence (P25103 whole entry): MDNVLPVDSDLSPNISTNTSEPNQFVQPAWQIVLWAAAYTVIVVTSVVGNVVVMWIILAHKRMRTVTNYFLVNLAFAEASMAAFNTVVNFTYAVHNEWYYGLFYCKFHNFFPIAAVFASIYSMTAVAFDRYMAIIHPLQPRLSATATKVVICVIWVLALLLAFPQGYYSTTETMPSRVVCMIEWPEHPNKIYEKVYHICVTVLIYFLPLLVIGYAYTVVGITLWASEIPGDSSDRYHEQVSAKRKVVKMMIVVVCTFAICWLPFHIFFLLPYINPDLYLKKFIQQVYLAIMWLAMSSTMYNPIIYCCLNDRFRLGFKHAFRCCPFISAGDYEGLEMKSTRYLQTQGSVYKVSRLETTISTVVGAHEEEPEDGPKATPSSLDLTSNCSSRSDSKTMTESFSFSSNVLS

SMILES | pIC50 [1] | pIC50 [2]
NCCC(O)(COCc1ccc(C(F)(F)F)cc1)c1ccccc1 (centres unmarked) [Example 56, 1-(4-(trifluoromethyl)benzyloxy)-4-amino-2-phenylbutan-2-ol] | < 6.52 | 6.52 to 7.00
NCCC(O)(COCc1cc(Cl)cc(Cl)c1)c1ccccc1 (centres unmarked) [Example 61, 1-(3,5-dichlorobenzyloxy)-4-amino-2-phenylbutan-2-ol] | 7.00 to 9.00 | 7.00 to 9.00
COc1ccccc1COCC(O)(CCN)c1ccccc1 (centres unmarked) [Example 62, 1-(2-methoxybenzyloxy)-4-amino-2-phenylbutan-2-ol] | < 6.52 | 7.00 to 9.00
COc1cccc(COCC(O)(CCN)c2ccccc2)c1 (centres unmarked) [Example 63, 1-(3-methoxybenzyloxy)-4-amino-2-phenylbutan-2-ol] | < 6.52 | 7.00 to 9.00
NCCC(O)(COCc1cccc(Cl)c1)c1ccccc1 (centres unmarked) [Example 65, 1-(3-chlorobenzyloxy)-4-amino-2-phenylbutan-2-ol] | < 6.52 | 7.00 to 9.00
NCCC(O)(COCc1ccc(Br)cc1)c1ccccc1 (centres unmarked) [Example 66, 1-(4-bromobenzyloxy)-4-amino-2-phenylbutan-2-ol] | < 6.52 | 6.52 to 7.00
Cc1ccccc1COCC(O)(CCN)c1ccccc1 (centres unmarked) [Example 67, 1-(2-methylbenzyloxy)-4-amino-2-phenylbutan-2-ol] | < 6.52 | 6.52 to 7.00
NCCC(O)(COCc1cc(Br)cc(Br)c1)c1ccccc1 (centres unmarked) [Example 68, 1-(3,5-dibromobenzyloxy)-4-amino-2-phenylbutan-2-ol] | 7.00 to 9.00 | 7.00 to 9.00
NCCC(O)(COCc1cccc(OC(F)(F)F)c1)c1ccccc1 (centres unmarked) [Example 69, 1-(3-(trifluoromethoxy)benzyloxy)-4-amino-2-phenylbutan-2-ol] | < 6.52 | 7.00 to 9.00
CNCCC(COCc1cc(C(F)(F)F)cc(C(F)(F)F)c1)c1ccccc1 (centres unmarked) [Example 72, 1-(3,5-bis(trifluoromethyl)benzyloxy)-4-methylamino-2-phenylbutane] | 7.00 to 9.00 | 7.00 to 9.00
CN(C)CCC(COCc1cc(C(F)(F)F)cc(C(F)(F)F)c1)c1ccccc1 (centres unmarked) [Example 73, 1-(3,5-bis(trifluoromethyl)benzyloxy)-4-dimethylamino-2-phenylbutane] | 7.00 to 9.00 | 7.00 to 9.00
CNCCC(C)(COCc1cc(C(F)(F)F)cc(C(F)(F)F)c1)c1ccccc1 (centres unmarked) [Example 75, 1-(3,5-bis(trifluoromethyl)benzyloxy)-4-methylamino-2-methyl-2-phenylbutane] | 7.00 to 9.00 | 6.52 to 7.00
CNCC(C)(COCc1cc(C(F)(F)F)cc(C(F)(F)F)c1)c1ccccc1 (centres unmarked) [Example 78, 1-(3,5-bis(trifluoromethyl)benzyloxy)-3-methylamino-2-methyl-2-phenylpropane] | 6.52 to 7.00 | 6.52 to 7.00
CN(C)CC(C)(COCc1cc(C(F)(F)F)cc(C(F)(F)F)c1)c1ccccc1 (centres unmarked) [Example 79, 1-(3,5-bis(trifluoromethyl)benzyloxy)-3-dimethylamino-2-methyl-2-phenylpropane] | 7.00 to 9.00 | 7.00 to 9.00

Results, then the molecule that gave them:

pIC50 [1] | pIC50 [2] | SMILES
< 6.52 | < 6.52 | NCCC(O)(COCc1ccccc1F)c1ccccc1 (centres unmarked) [Example 57, 1-(2-fluorobenzyloxy)-4-amino-2-phenylbutan-2-ol]
< 6.52 | 6.52 to 7.00 | NCCC(O)(COCc1cccc(F)c1)c1ccccc1 (centres unmarked) [Example 58, 1-(3-fluorobenzyloxy)-4-amino-2-phenylbutan-2-ol]
< 6.52 | 6.52 to 7.00 | NCCC(O)(COCc1ccc(F)cc1)c1ccccc1 (centres unmarked) [Example 59, 1-(4-fluorobenzyloxy)-4-amino-2-phenylbutan-2-ol]
< 6.52 | 7.00 to 9.00 | Cc1cccc(COCC(O)(CCN)c2ccccc2)c1 (centres unmarked) [Example 60, 1-(3-methylbenzyloxy)-4-amino-2-phenylbutan-2-ol]
6.52 to 7.00 | 7.00 to 9.00 | NCCC(O)(COCc1cc(F)cc(F)c1)c1ccccc1 (centres unmarked) [Example 64, 1-(3,5-difluorobenzyloxy)-4-amino-2-phenylbutan-2-ol]
< 6.52 | 7.00 to 9.00 | NCCC(O)(COCc1ccc(Cl)cc1)c1ccccc1 (centres unmarked) [Example 70, 1-(4-chlorobenzyloxy)-4-amino-2-phenylbutan-2-ol]
7.00 to 9.00 | 6.52 to 7.00 | NCCC(COCc1cc(C(F)(F)F)cc(C(F)(F)F)c1)c1ccccc1 (centres unmarked) [Example 71, 1-(3,5-bis(trifluoromethyl)benzyloxy)-4-amino-2-phenylbutane]
7.00 to 9.00 | 7.00 to 9.00 | CC(CCN)(COCc1cc(C(F)(F)F)cc(C(F)(F)F)c1)c1ccccc1 (centres unmarked) [Example 74, 1-(3,5-bis(trifluoromethyl)benzyloxy)-4-amino-2-methyl-2-phenylbutane]
6.52 to 7.00 | 7.00 to 9.00 | CN(C)CCC(C)(COCc1cc(C(F)(F)F)cc(C(F)(F)F)c1)c1ccccc1 (centres unmarked) [Example 76, 1-(3,5-bis(trifluoromethyl)benzyloxy)-4-dimethylamino-2-methyl-2-phenylbutane]
6.52 to 7.00 | 6.52 to 7.00 | CC(CN)(COCc1cc(C(F)(F)F)cc(C(F)(F)F)c1)c1ccccc1 (centres unmarked) [Example 77, 1-(3,5-bis(trifluoromethyl)benzyloxy)-3-amino-2-methyl-2-phenylpropane]
6.52 to 7.00 | 7.00 to 9.00 | NCCC(O)(CSCc1cc(C(F)(F)F)cc(C(F)(F)F)c1)c1ccccc1 (centres unmarked) [Example 80, 1-(3,5-bis(trifluoromethyl)benzylthio)-4-amino-2-phenylbutane-2-ol]
